Experiment [1] relates to LDLr−/− mice. In words: Steatosis scoring by HE and oil red O staining of liver sections. The class given is in vivo. The following applies: high-fat diet 27-HC-treated groups. As to the method:
A total of five different experimental groups, ranging from eigtht to nine mice per group, were used to assess the effects of 27-HC. The 27-HC was dissolved in 2-hydroxypropyl-β-cyclodextrin (Sigma-Aldrich GmbH H5784; St. Louis, Mo.) and injected with a concentration of 40 mg of 27-HC per kilogram of body weight via a subcutaneous injection. Mice in Group A received a chow diet and control injections consisting of 2-hydroxypropyl-β-cyclodextrin dissolved in sodium chloride. Group B mice were also on the chow diet but are given daily subcutaneous injections of 27-HC. Group C were the mice that received the high-fat diet (21% fat; 0.2% cholesterol) and control injections. To differentiate between a therapeutic and a regression effect of the 27-HC, the following two groups were set up: a high-fat diet with daily 27-HC injections (Group D) and a high-fat diet group with two weeks of control injections followed by a week of 27-HC injections (Group E). Mice were housed under standard conditions with food and water available ad libidum. […]
Stained sections were scored in a blind manner by a specialized animal pathologist. […] Sections were scored for the quantity of fat droplets and for the foamy appearance of Kupffer cells. […]
To verify the quantification of fat, 7 μm thick frozen sections were stained with oil red O (ORO; O0725; Sigma-Aldrich), the neutral lipid marker. […]

In experiment [2] the test system is LDLr−/− mice. In words: Liver lipid analysis, NASH treatment with 27-HC. Format: in vivo. As to the method: (§1) The experimental approach consisted of utilizing low-density (LDL) receptor-deficient mice (LDLr−/−) on a C57B16 background. This mouse model is predisposed to elevated serum cholesterol levels when fed a high-fat diet. On a normal chow diet, these mice have a three-fold increase in cholesterol levels when compared to controls.^(39) The lab determined that two weeks is sufficient for mice to reach a steatotic and inflamed liver state.
Experiments were performed in accordance with Dutch law for animal experimentation and approved by the Committee for Animal Welfare of the University of Maastricht. […]
Homogenization of approximately 50 mg of frozen liver tissue was completed at 5000 rpm for 30 seconds with 1.0 mm glass beads along with 1.0 ml SET buffer (sucrose 250 mmol/L, EDTA 2 mmol/L, and Tris 10 mmol/L). […] After adding 200 μl of the reagents (50 parts A, 1 part B) and letting the mixture stand for 30 minutes at 37° C., the absorbance was measured utilizing the enzymatic color test bicinchoninic acid (BCA) method (Pierce, Rockford, Ill.) at a wavelength of 560 nm with a Benchmark 550 Micro-plate reader (170-6750XTU; Bio-Rad, Hercules, Calif.). […]

The subject of experiment [3] is hyperlipidemic LDLR knockout mice. The experiment in a line: HFC diet supplemented with 27-hydroxycholesterol in hyperlipidemic LDLR knockout mice. The class given is in vivo. Conditions: HFC diet supplemented with 27-hydroxycholesterol 0.1% w/w for three weeks vs HFC diet. The text has this: To determine whether exogenous 27-HC can reduce hepatic inflammation, hyperlipidemic LDLR knockout mice may be fed either chow, HFC diet or HFC diet supplemented with 27-hydroxycholesterol (0.1% w/w) for three weeks. Then, the mice may be sacrificed and detailed characterization of liver and plasma may be performed.

The test system of experiment [4] is LDLr−/− mice. In words: Hepatic inflammation: immunohistochemical staining for infiltrated macrophages (MAC1) and neutrophils (NIMP). Format: in vivo. The following applies: vs Group C; for Infiltrated macrophages (MAC1 staining): FIG. 3A. As to the method:
A total of five different experimental groups, ranging from eigtht to nine mice per group, were used to assess the effects of 27-HC. The 27-HC was dissolved in 2-hydroxypropyl-β-cyclodextrin (Sigma-Aldrich GmbH H5784; St. Louis, Mo.) and injected with a concentration of 40 mg of 27-HC per kilogram of body weight via a subcutaneous injection. Mice in Group A received a chow diet and control injections consisting of 2-hydroxypropyl-β-cyclodextrin dissolved in sodium chloride. Group B mice were also on the chow diet but are given daily subcutaneous injections of 27-HC. Group C were the mice that received the high-fat diet (21% fat; 0.2% cholesterol) and control injections. To differentiate between a therapeutic and a regression effect of the 27-HC, the following two groups were set up: a high-fat diet with daily 27-HC injections (Group D) and a high-fat diet group with two weeks of control injections followed by a week of 27-HC injections (Group E). Mice were housed under standard conditions with food and water available ad libidum.
One day previous to the start of the experiment, the mice were weighed and 100-200 μl of blood were collected in a capillary tube after four hours of fasting via an incision in the tail vein. On day 0, the feeding of specialized diets and injections began according to each group. On the 21st day after the start of the experiment, the animals were weighed and fasted for four hours and had another 100-200 μl of blood drawn and collected in a capillary tube via an incision in the tail vein. Afterwards, the mice were sacrificed via cervical dislocation and immediately had their livers removed via a laparotomy consisting of an incision from the pelvis to the rib cage to gain access into the abdomen. […]
Nikon digital camera model DMX1200 and ACT-1 v2.63 software from Nikon Corporation were used to photograph each section. […] The positive cells for each picture were then counted or scored and noted as cells or lipid droplets per square millimeter, respectively.

Experiment [5] has as its system fibroblasts. The experiment in a line: Incubation of fibroblasts with 27-HC, endolysosomal cholesterol accumulation. The class given is cell-based.
Experiment [6] concerns LDLr−/− mice. The experiment in a line: Plasma lipid analysis, NASH treatment with 27-HC. Format: in vivo. As to the method:
as §1
Experiments were performed in accordance with Dutch law for animal experimentation and approved by the Committee for Animal Welfare of the University of Maastricht. In this study, the aim was to investigate the ability of 27-hydroxycholesterol (generous gift from Dr. Norman B. Javitt; New York University School of Medicine) to reduce hepatic inflammation and to characterize its potential use as a therapeutic agent for NASH patients. […]
Plasma cholesterol and triglyceride measurements were tested with the enzymatic color tests. […] Absorbance was measured at the 490 nm wavelength with a Benchmark 550 Micro-plate reader. […] Subsequently, 200 μl of reagent A was added, mixed, and after 15 minutes of incubation, read at a wavelength of 545 nm for the initial absorbance. […] The final absorbance was then measured at 545 nm. The concentration of triglycerides was then calculated by subtracting the initial concentrations from the final concentrations. […]

With `C[C@@H](CO)CCC[C@@H](C)[C@H]1CC[C@H]2[C@@H]3CC=C4C[C@@H](O)CC[C@]4(C)[C@H]3CC[C@]12C` [27-HC, 27-hydroxycholesterol], in experiment [1] (FIG. 2E), the “Steatosis score, HE staining” value is listed as “do not show any statistical significance or trends”. For the same compound, the “Steatosis score, oil Red O staining” value in experiment [1] (FIG. 2F) was “do not show any statistical significance or trends”. The Liver cholesterol levels result in experiment [2] (27-HC 40 mg/kg s.c. injected groups vs control-injected groups, 3 weeks, FIG. 2C) is on record as “do not show altered cholesterol levels”. Moreover, the Liver triglycerides entry in experiment [2] (among high-fat diet groups C-E, FIG. 2D) is “no significant differences”. In experiment [3], the “Liver and systemic inflammation” value is “reduced liver and systemic inflammation”; the Lysosomal cholesterol accumulation result was “less lysosomal cholesterol accumulation”. The “Infiltrated macrophages (MAC1 staining)” value in experiment [4] (Group D: high-fat diet, daily 27-HC for three weeks) is reported as “significantly decreased”. Moreover, the “Neutrophils (NIMP staining)” value in experiment [4] (Group D: high-fat diet, daily 27-HC for three weeks, FIG. 3B) was “decreased neutrophils”. For the same compound, the “Infiltrated macrophages (MAC1 staining)” value in experiment [4] (Group E: high-fat diet, two weeks control injections then one week 27-HC) is recorded as “significantly decreased”. In addition, the Endolysosomal cholesterol accumulation result in experiment [5] is “decrease endolysosomal cholesterol accumulation”. The Plasma cholesterol levels result in experiment [6] (27-HC 40 mg/kg s.c. injected groups vs control-injected groups, 3 weeks, FIG. 2A) is “do not show altered cholesterol levels”. In addition, the Plasma triglycerides result in experiment [6] (Group D: high-fat diet, daily 27-HC 40 mg/kg s.c. for three weeks, vs Groups C and E, FIG. 2B) is “diminished”.

The values are drawn from patent publication US20130184246A1, “METHOD FOR TREATING FATTY LIVER DISEASES, IN PARTICULAR NON-ALCOHOLIC STEATOHEPATITIS” (priority 2010, published 2013).
